Results from patent US8541415B2 (University of Pittsburgh—of the Commonwealth System of …, priority 2008, dated 2013).
Where two headings read alike, the source gives them in different places.

Legend:
HIV-1 strain NL4-3 = assay: microbe, parasite or virus in culture; type: cell-based; settings: for activity at 5 µM / IC50: Human immunodeficiency virus 1, NL43, U-87 MG; for activity at 5 µM: 96 h, read-out: HIV p24% Control @ day 4; for IC50: 120 h
Description: (§1) Lead compounds from the yeast screen were evaluated for activity in a Nef-dependent HIV replication assay. For these experiments, U87MG astroglioma cells engineered to express the HIV-1 co-receptors CD4 and CXCR4 were employed. Replication of HIV-1 NL4-3 is dependent upon an intact viral nef gene in these cells, making this system suitable to evaluate leads from the Nef-directed screen. U87MG cells were infected with HIV-1 in the presence of the top five compounds identified in the yeast screen, and HIV replication was monitored as p24 release into the culture supernatant 4 days later, as known in the art. As known in the art, “p24” refers to a constituent protein of the capsid of HIV-1.
(§2) The data of Table 1 are presented as percent p24 release relative to control in the absence of compound. […] Data are expressed as percent viable cells relative to untreated control culture.
It is understood that “strongest” and like terms in the context of inhibitors identified in a library screen refer to compounds that inhibit at the lowest concentrations. For these experiments, the U87MG astroglioma cell line was used as a model system. […] U87MG cells were infected with HIV-1 strain NL4-3 as well as an isogenic variant that fails to express Nef (ΔNef), over a wide range of viral titers and in the presence of each compound at 5 μM. Viral replication was assessed as HIV p24 antigen release into the culture supernatant 4 and/or 5 days later. Methods for the assay of p24 in culture supernatant are well known in the art and include, for example without limitation, immunochemical methods.

U87MG cells = settings: human, 96 h, 30 μM
Description: as §1, §2

Hck alone = target: T1, Hck alone (Homo sapiens, UniProt P08631); assay: In vitro kinase assay of Hck alone (Z'-LYTE, peptide substrate); type: biochemical; settings: Z'-Lyte dose-response, FIG. 7
T1 construct: made in house; host or cells: Sf9 insect cells
T1 sequence (P08631 with tags, fused parts or gaps isoform P08631-3): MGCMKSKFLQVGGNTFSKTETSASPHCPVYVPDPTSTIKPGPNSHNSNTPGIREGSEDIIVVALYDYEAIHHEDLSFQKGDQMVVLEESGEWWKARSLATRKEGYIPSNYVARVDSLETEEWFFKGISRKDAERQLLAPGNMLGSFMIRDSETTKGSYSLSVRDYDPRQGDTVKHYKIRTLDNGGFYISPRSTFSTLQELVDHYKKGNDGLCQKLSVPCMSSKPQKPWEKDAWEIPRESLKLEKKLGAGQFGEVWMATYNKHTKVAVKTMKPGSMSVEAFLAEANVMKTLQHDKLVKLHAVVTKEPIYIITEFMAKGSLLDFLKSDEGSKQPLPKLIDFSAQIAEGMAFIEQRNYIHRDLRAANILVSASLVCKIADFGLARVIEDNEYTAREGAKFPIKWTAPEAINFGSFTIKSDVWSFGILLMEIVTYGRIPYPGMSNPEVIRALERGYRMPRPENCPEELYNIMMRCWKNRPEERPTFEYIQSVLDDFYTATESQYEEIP

Nef:Hck-YEEI complex [1] = target: T2, Nef:Hck-YEEI complex (Homo sapiens, UniProt P08631); settings: Z'-Lyte dose-response, FIG. 7
Target sequence in this assay (P08631 with tags, fused parts or gaps isoform P08631-3, other chains not shown): as the sequence (P08631 with tags, fused parts or gaps isoform P08631-3) above
Nef:Hck-YEEI complex [2] = target: T2, Nef:Hck-YEEI complex
Target sequence in this assay (P03407 2-210): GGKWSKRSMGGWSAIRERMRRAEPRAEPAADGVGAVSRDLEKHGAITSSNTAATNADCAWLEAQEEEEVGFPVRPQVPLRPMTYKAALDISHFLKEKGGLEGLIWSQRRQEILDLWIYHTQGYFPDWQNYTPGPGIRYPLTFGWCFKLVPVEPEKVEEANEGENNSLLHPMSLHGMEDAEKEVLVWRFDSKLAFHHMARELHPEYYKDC
Target sequence in this assay (P08631 other isoform, or with tags, fused parts or gaps): as the sequence (P08631 with tags, fused parts or gaps isoform P08631-3) above
Description: For the liquid growth assay, yeast strain W303a was co-transformed with the required plasmids, seeded at an initial density of OD600nm=0.05 units in SD/-U-T medium, and incubated for 21 h at 30° C.
Aliquots of yeast cultures used for the spot assay were grown in SD/-U-T medium plus galactose for 18 h. […] Aliquots of each lysate (0.2 OD600nm units) were separated via SDS-PAGE, transferred to PVDF membranes, and probed for protein phosphotyrosine content with a combination of the anti-phosphotyrosine antibodies PY99 (Santa Cruz Biotechnology, Santa Cruz, Calif.) and PY20 (Transduction Laboratories, Lexington, Ky.).
Yeast strain W303a was co-transformed with Hck-YEEI (SE0 ID NO: 4) and Nef expression plasmids and grown to an OD600nm of 0.05. Cells (100 μL) were plated in duplicate wells of a 96-well plate in the presence of each compound from the Chempiv kinase-biased inhibitor library (Chempiv, Inc., San Diego, Calif.). All compounds were initially screened at 10 μM with 0.5% DMSO as carrier solvent. […] Cultures were incubated at 30° C., and the OD60nm was measured at 0 and 22 h.
Nef:Hck-YEEI complex [3] = settings: Z'-Lyte dose-response, FIG. 7A
Nef:Hck-YEEI complex [4] = target: T2, Nef:Hck-YEEI complex; assay: biochemical
Target sequence in this assay (P08631 with tags, fused parts or gaps isoform P08631-3, other chains not shown): as the sequence (P08631 with tags, fused parts or gaps isoform P08631-3) above

[5] = tested on: HIV-ΔNef mutant (NL4-3 that fails to express Nef); assay: Replication of Nef-defective HIV in U87MG cells (p24 ELISA); settings: p24 ELISA day 5, FIG. 8, for Ma even at 10 μM
Description: HIV p24 release was determined by ELISA at day 5 following the addition of the DFP-analogs. […] U87MG cells were infected a viral density of 500 pg/ml. p24 as determined by ELISA.
To address whether Nef is required for the anti-retroviral effects of these compounds, HIV replication assays in U87MG cells infected with either wild-type or Nef-defective HIV were carried out.
Viral replication was monitored by measuring p24 protein levels in the culture supernatant 4 days after infection by standard ELISA-based techniques. Test compounds were added to the culture 30 min prior to infection with HIV, and DMSO was used as the carrier solvent at a final concentration of 0.1%.

Nc1ncnc2oc(-c3ccccc3)c(-c3ccccc3)c12 [IIIi]
activity at 5 µM (HIV-1 strain NL4-3): 72%
Anti-retroviral activity (HIV-1 strain NL4-3; data not shown): very weak anti-retroviral activity
Cytotoxicity, Viable cell % control (U87MG cells): 94 % control
Inhibition of Hck alone (Hck alone): virtually inactive
Inhibition of Nef:Hck complex (Nef:Hck-YEEI complex [1]): virtually inactive

CN1CCN(C2CCC(n3cc(-c4ccc(Oc5ccccc5)cc4)c4c(N)ncnc43)CC2)CC1 (stereo not drawn) [Compound A-419259]
Tyrosine phosphorylation of yeast proteins (Nef:Hck-YEEI complex [2]; inhibitor-treated yeast cultures, anti-phosphotyrosine immunoblot): decrease in tyrosine phosphorylation of yeast proteins to control levels
Reversal of growth arrest compared with Nef PxxP mutation (Nef:Hck-YEEI complex [2]; liquid yeast cultures, 5 μM): nearly as effective as mutation of the Nef PxxP motif
Reversal of growth suppression induced by Nef:Hck-YEEI (Nef:Hck-YEEI complex [2]; liquid yeast cultures, OD 600 nm, at both 1 μM and 5 μM vs untreated cultures): significantly reversed the growth suppression

OCCCNc1ncnc2oc(-c3ccccc3)c(-c3ccccc3)c12 [IIIa, 3-(5,6-diphenylfuro[2,3-d]pyrimidin-4-ylamino)propan-1-ol]
activity at 5 µM (HIV-1 strain NL4-3): 20%
IC50 (HIV-1 strain NL4-3; read-out: IC50, HIV-1 replication (viral p24 release), U87MG cells, HIV strain NL4-3, p24 ELISA 5 days later, FIG. 5C): 6 µM
HIV replication, p24 release (HIV-1 strain NL4-3; U87MG cells, HIV-1 NL4-3, compound at 5 μM, 4 and/or 5 days, FIG. 6): undetectable levels
IC50, wild-type HIV replication (HIV-1 strain NL4-3; U87MG cells, wild-type NL4-3, p24 ELISA day 5, FIG. 8): low μM range
Cytotoxicity against U87MG cells (U87MG cells): neither DFP-4AP nor any of the other diphenylfuropyrimidine analogs displayed significant cytotoxicity
Cytotoxicity, Viable cell % control (U87MG cells): 95 % control
Increase in potency in the presence of Nef (Nef:Hck complex vs Hck alone) (Nef:Hck-YEEI complex [3]): 2 fold
IC50 (Nef:Hck-YEEI complex [4]; IC50, Nef-induced Hck activation (Nef:Hck complex kinase activity), in vitro, peptide substrate, triplicate, FIG. 5B legend): 4 µM
IC50 (Nef:Hck-YEEI complex [4]; IC50, kinase activity of Nef:Hck-YEEI complex, dose response study, FIG. 5B, text b88): ~3 µM
Effect on replication of HIV-ΔNef mutant [5]: no effect

c1ccc(-c2oc3ncnc(NCCCc4ccco4)c3c2-c2ccccc2)cc1 [IIIq, N-(3-(furan-2-yl)propyl) 5,6-diphenylfuro[2,3-d]pyrimidin-4-amine]
IC50 (HIV-1 strain NL4-3; read-out: IC50, wild-type HIV replication, U87MG cells, wild-type NL4-3, p24 ELISA day 5, FIG. 8): ≤ 1 µM
Inhibition of Nef:Hck complex (Nef:Hck-YEEI complex [1]): enhanced both potency and efficacy for the Nef:Hck complex vs. Hck alone
Effect on replication of HIV-ΔNef mutant [5]: Neither IIIm nor IIIq shows inhibition
